pIC50: −log10 of the molar value.
Tests used:
[1] = tested on: lymphoid leukemia L1210 cells; test: Inhibition of proliferation of cultured lymphoid leukemia L1210 cells (48 hours); type: cell-based; conditions: read-out: L1210 ID50 (concentration of agent that inhibits proliferation of cultured lymphoid leukemia L1210 cells to 50% control growth during 48 hours)
Protocol: ^a Concentration of agent that inhibits proliferation of cultured
lymphoid leukemia L1210 cells to 50% control growth during 48 hours
[Wheeler, G. P., Bowdon, B. J., Werline, J. A., Adamson, D. J., and
Temple, C., Jr., Cancer Research, 1982, 42, 791].

[2] = tested on: Lymphocytic leukemia P388; test: Increase in life span, lymphocytic leukemia P388, 10^6 tumor cell implant, i.p.; type: in vivo; conditions: Mus musculus, P388, ip, schedule 1-5, read-out: P388 % ILS (increase in life span at the highest nontoxic dose)
From the text: ^c Lymphocytic leukemia P388.
^d Increase in life span at the highest nontoxic dose.

[3] = tested on: lymphoid leukemia L1210 cells; test: Mitotic index (fraction of cells in mitosis) of cultured lymphoid leukemia L1210 cells, 12 hours exposure; type: cell-based; conditions: Mus musculus, exposure period of 12 hours, read-out: L1210 MI0.5 (concentration of agent that causes a mitotic index of 0.5)
Protocol: ^b Concentration of agent that causes a mitotic index (fraction of
cells in mitosis divided by total cells) of 0.5 for cultured lymphoid
leukemia L1210 cells during an exposure period of 12 hours [Wheeler, G.
P., Bowden, B. J., Werline, J. A., Adamson, D. J., and Temple, C., Jr.,

| pIC50 [1] | SMILES | ILS at 300 mg/kg [2] | EC (mitotic index 0.5) [3] | further results |
| --- | --- | --- | --- | --- |
| < 5.52 | CCOC(=O)Nc1cc2c(c(N)n1)N=C(c1cc(OC)c(OC)c(OC)c1)CO2 [g] | 0% |  |  |
| 5.66 | CCOC(=O)Nc1cc2c(c(NC(=O)CBr)n1)N=C(c1ccccc1)CO2 [q] |  | 11 µM |  |
| < 6.52 | CCOC(=O)Nc1cc2c(c(N)n1)N=C1c3ccccc3CCC1O2 (stereo not shown) [d] | 32% |  |  |
| 5.21 | CCOC(=O)Nc1cc2c(c(N)n1)N=C(c1ccccc1)CS2 [j] | 0% | 10 µM |  |
| 5.80 | CCOC(=O)Nc1cc2c(c(N)n1)N=C(c1ccccc1)C(C)S2 (stereo not shown) [k] |  | 9.6 µM | ILS at 150 mg/kg ([2]; 150 mg/kg): 10% |
| 6.51 | CCOC(=O)Nc1cc2c(c(N=CN(C)C)n1)N=C(c1ccccc1)CO2 [p] |  | 0.78 µM |  |
| 6.47 | CCOC(=O)Nc1cc2c(c(N)n1)N=C(c1ccc(OC)cc1)CS2 [n] | 3% | 4.9 µM |  |
| < 5.52 | CCOC(=O)Nc1cc2c(c(N)n1)N=C(c1ccc([N+](=O)[O-])cc1)CO2 [i] | 0% |  |  |
| < 5.52 | CCOC(=O)Nc1cc2oc(=O)c(-c3ccccc3)nc2c(N)n1 [e] | 0% |  |  |
| 6.24 | CCOC(=O)Nc1cc2c(c(N)n1)N=C(c1ccc3ccccc3c1)CS2 [o] | 5% | 3 µM |  |
| 6.28 | CCOC(=O)Nc1cc2c(c(N)n1)N=C(c1cccc(OC)c1)CS2 [m] |  | 2 µM | ILS at 75 mg/kg ([2]; 75 mg/kg): 3% |
| < 5.00 | CCOC(=O)Nc1cc2c(c(N)n1)N=C(c1ccccc1)C(C)(C)S2 [l] |  |  |  |
| 6.06 | CCOC(=O)Nc1cc2c(c(N)n1)N=C(c1ccccc1)C(c1ccccc1)O2 (stereo not shown) [c] |  | 3 µM | ILS at 200 mg/kg [2]: 2% |
| 6.96 | CCOC(=O)Nc1cc2c(c(N)n1)N=C(c1ccccc1)C(C)O2 (stereo not shown) [b] |  | 0.49 µM | ILS at 100 mg/kg [2]: 50% |

| SMILES | pIC50 [1] | ILS at 300 mg/kg [2] | EC (mitotic index 0.5) [3] | further results |
| --- | --- | --- | --- | --- |
| CCOC(=O)Nc1cc2c(c(N)n1)N=C(c1ccccc1)CO2 [a] | 6.65 |  | 0.56 µM | ILS at 100 mg/kg [2]: 44%; ILS at 200 mg/kg [2]: 80% |
| CCOC(=O)Nc1cc2c(c(N)n1)N=C(c1ccc(Cl)cc1)CO2 [h] | < 5.52 | 0% |  |  |
| CCOC(=O)Nc1cc2c(c(N)n1)N=C(c1cccc(OC)c1)CO2 [f] | 7.28 |  | 0.1 µM | ILS at 50 mg/kg ([2]; 50 mg/kg): 73% |
